Calls of active or inactive are those of the source. No cut-off for these calls is given here.

Data set [1] can be described thus: Cytotoxicity against human J-Lat cells. It is filed as cell-based.
For data set [2], the system named is Human immunodeficiency virus 1. In words: Reactivation of latent HIV1 LTR-GFP infected in human Jurkat-Lat A10.6 cells assessed as increase in GFP-positive cells after 24 hrs by flow cytometry relative to control. The format is functional. In general terms: A flow cytometer gives signals particle by particle.
For data set [3], the system named is T cell. In words: Induction of monkey PBMC CD3+ T cells activation assessed as increase in CD69 expression up to 500 uM after 24 hrs by flow cytometry. The following applies: rhesus monkey. The format is cell-based, Macaca mulatta.
Data set [4] deals with T cell. In words: Induction of monkey PBMC CD4+ T cells activation assessed as increase in CCR5 expression up to 500 uM after 24 hrs by flow cytometry. The format is cell-based, Macaca mulatta. The conditions noted are these: rhesus monkey.
In data set [5] the test system is Simian immunodeficiency virus. Nature of the data set: Reactivation of Simian immunodeficiency virus mac239 latent provirus in primary CD4+ T lymphocytes isolated from infected rhesus monkey PBMC assessed as increase in msRNA level after 24 hrs by RT-PCR analysis. The format is functional, organism-based.
The test system of data set [6] is Human immunodeficiency virus 1. In words: Reactivation of latent HIV1 LTR-GFP infected in human Jurkat-Lat A10.6 cells assessed as GFP-positive cells at 10 uM after 24 hrs by flow cytometry (reference value: 5.06%). The format is functional.
In data set [7] the test system is Human immunodeficiency virus 1. In words: Reactivation of latent HIV1 LTR-GFP infected in human Jurkat-Lat A10.6 cells assessed as GFP-positive cells at 100 uM after 24 hrs by flow cytometry (reference value: 5.06%). The format is functional.
In data set [8] the test system is T cell. In words: Induction of monkey PBMC CD3+ T cells activation assessed as increase in CD25 expression up to 500 uM after 24 hrs by flow cytometry. It is filed as cell-based, Macaca mulatta. The conditions noted are these: rhesus monkey.
Data set [9] has as its system T cell. Nature of the data set: Induction of monkey PBMC CD3+ T cells activation assessed as increase in CCR5 expression up to 500 uM after 24 hrs by flow cytometry. It is filed as cell-based, Macaca mulatta. The conditions noted are these: rhesus monkey.
Data set [10] has as its system T cell. In words: Induction of monkey PBMC CD4+ T cells activation assessed as increase in CD25 expression up to 500 uM after 24 hrs by flow cytometry. It is filed as cell-based, Macaca mulatta. The conditions noted are these: rhesus monkey.
Data set [11] concerns T cell. Nature of the data set: Induction of monkey PBMC CD4+ T cells activation assessed as increase in CD69 expression up to 500 uM after 24 hrs by flow cytometry. It is filed as cell-based, Macaca mulatta. The conditions noted are these: rhesus monkey.
Data set [12] deals with Simian immunodeficiency virus. In words: Reactivation of Simian immunodeficiency virus mac239 latent provirus in primary CD4+ T lymphocytes isolated from infected rhesus monkey PBMC assessed as increase in usRNA level after 24 hrs by RT-PCR analysis. The format is functional, organism-based.
In data set [13] the test system is Human immunodeficiency virus. Nature of the data set: Reactivation of HIV latent provirus in primary CD4+ T lymphocytes isolated from infected human PBMC assessed as increase in usRNA level at 10 to 100 uM after 24 hrs by RT-PCR analysis. The format is functional, organism-based.
The next data set concerns PBMC. Nature of the data set: Cytotoxicity against PBMC (unknown origin) assessed as reduction in cell viability up to 500 uM by CCK8 assay. The format is cell-based. (In general: Tetrazolium dyes change colour on reduction, which living cells bring about.)
In data set [14] the test system is Human immunodeficiency virus. In words: Reactivation of HIV latent provirus in primary CD4+ T lymphocytes isolated from infected human PBMC assessed as increase in msRNA level at 10 to 100 uM after 24 hrs by RT-PCR analysis. The format is functional, organism-based.
Data set [15] in a line: Cytotoxicity against human J-Lat cells at 100 uM. The format is cell-based.
Data set [16] relates to Human immunodeficiency virus 1. In words: Reactivation of latent HIV1 LTR-GFP infected in human Jurkat-Lat A10.6 cells assessed as GFP-positive cells after 24 hrs by flow cytometry (reference value: 5.06%). It is filed as functional.
The test system of data set [17] is Human immunodeficiency virus. Nature of the data set: Reactivation of HIV latent provirus in primary CD4+ T lymphocytes isolated from infected human PBMC assessed as increase in msRNA level after 24 hrs by RT-PCR analysis. It is filed as functional, organism-based.
Data set [18] deals with Human immunodeficiency virus. In words: Reactivation of HIV latent provirus in primary CD4+ T lymphocytes isolated from infected human PBMC assessed as increase in usRNA level after 24 hrs by RT-PCR analysis. It is filed as functional, organism-based.

For the compound `CCOC(=O)C1(C(F)(F)F)C(C#N)=C(N)Oc2c1c1ccccc1n2C(=O)OC(C)(C)C` (racemic), the “fold change (FC)” value in data set [1] came to 1.8; in [2], 2.6.

As to `CC(C)(C)OC(=O)n1c2c(c3ccccc31)C(C(F)(F)F)C(C#N)=C(N)O2` (configuration not stated), the “fold change (FC)” value in [1] came out at 3; in data set [2], 0.25.

As to `CCOC(=O)C1(C(F)(F)F)C(C#N)=C(N)Oc2c1c1ccccc1n2C` (configuration not stated), the “fold change (FC)” value in data set [1] stood at 1.3; in data set [2] it was 4.4. The Activity result in the data set on T cell [3] is “Non-Toxic”; in the data set with T cell [4], “Non-Toxic”; in data set [5], “Dose-dependent effect”; in [6] it was 9.16%; in [7], 23%; in the data set with T cell [8], “Non-Toxic”. Moreover, the Activity result is “Non-Toxic” with T cell [9]; “Non-Toxic” in the data set with T cell [10]; “Non-Toxic” in the data set on T cell [11]; “Dose-dependent effect” in data set [12]; “Non-Toxic” in the data set with PBMC. Also, the result in data set [13] and in data set [14] was Active.

`CCOC(=O)C1(C(F)(F)F)C(C#N)=C(N)Oc2[nH]c3ccccc3c21` (configuration not stated): in data set [15], the Activity entry is recorded as “Toxic”. The “fold change (FC)” value in data set [2] is given as 2.

As for `CCOC(=O)[C@@]1(C(F)(F)F)C(C#N)=C(N)Oc2c1c1ccccc1n2C(=O)OC(C)(C)C`, in data set [15], the Activity result is given as “Toxic”. The “fold change (FC)” value in data set [2] is 1.5.

`CCCC(CCC)C(=O)O` [VALPROIC ACID]: the result in data set [5], in data set [12], in data set [17] and in [18] was inactive. The Activity in data set [16] is recorded as 25.7%.

On to `CCOC(=O)C1(C(F)(F)F)C(C#N)=C(N)Oc2c1c1ccccc1n2Cc1ccccc1` (configuration not stated), for which the Activity result in data set [15] was “Toxic”. Besides, the “fold change (FC)” value in [2] was 1.9.

Consider `COC(=O)C1(C(F)(F)F)C(C#N)=C(N)Oc2c1c1ccccc1n2C(=O)OC(C)(C)C` (configuration not stated), for which the “fold change (FC)” value in [1] turned out to be 2.6; in [2], 2.1.

For the origin of these results see ChEMBL document CHEMBL4261560, “Structure-optimized dihydropyranoindole derivative GIBH-LRA002 potentially reactivated viral latency in primary CD4+ T lymphocytes of chronic HIV-1 patients” (Medchemcomm, 2017).
